In PMC5706701, “Development of a homogenous high-throughput assay for inositol hexakisphosphate kinase 1 activity” (PLoS ONE, 2017):
Where a name gives a salt, the structure may show the parent alone. Read-outs that look alike come from different tables or passages of the source.

Biological target: T1, Human IP6K1 (Homo sapiens, UniProt Q92551)
T1 construct: GST (N, cleaved yes); made in house; host or cells: C43 E. coli, pGEX-6P-2
Test: IP6K1 high-throughput screen of the Sigma LOPAC (ADP-Glo Max, single point);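 further: final compound concentration 10µM in 5% DMSO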
Format: biochemical

[1] = Sigma LOPAC single-point screen, ADP-Glo Max raw signal per well
[2] = Sigma LOPAC single-point screen, Z-score from plate average and StDev
[3] = LOPAC single-point screen, ADP-Glo Max raw signal per well
[4] = LOPAC single-point screen, Z-score against plate average and StDev
[5] = LOPAC single-point screen, Z-score from raw signal with plate average and StDev
[6] = LOPAC single-point screen, ADP-Glo Max luminescence raw signal per well
[7] = LOPAC single-point screen, Z-score from plate average and StDev
[8] = LOPAC single-point screen, Z-score relative to plate average and StDev

T1 sequence (Q92551 whole entry): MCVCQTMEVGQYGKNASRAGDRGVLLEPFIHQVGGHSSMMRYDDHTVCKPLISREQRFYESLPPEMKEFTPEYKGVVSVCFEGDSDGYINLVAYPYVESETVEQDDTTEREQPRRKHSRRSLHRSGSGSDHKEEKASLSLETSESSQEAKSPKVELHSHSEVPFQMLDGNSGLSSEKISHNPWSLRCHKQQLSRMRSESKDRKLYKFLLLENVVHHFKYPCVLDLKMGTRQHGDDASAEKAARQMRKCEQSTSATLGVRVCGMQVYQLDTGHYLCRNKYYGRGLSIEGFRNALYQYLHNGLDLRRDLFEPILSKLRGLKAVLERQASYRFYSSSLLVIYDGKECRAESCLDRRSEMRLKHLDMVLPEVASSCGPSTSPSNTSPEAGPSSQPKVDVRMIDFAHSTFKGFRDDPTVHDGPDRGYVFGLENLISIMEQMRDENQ

O=C1CCC(c2ccc(-n3ccnc3)cc2)=NN1 [Imazodan]
Raw Signal [1]: 60009 | Z-score [2]: 0.9834

N=C(N)SCCc1cnc[nH]1 [Imetit dihydrobromide]
Raw Signal: 60718 | Z-score: 1.063

Cl.O=C(O)Cc1c[nH]cn1 [Imidazole-4-acetic acid hydrochloride]
Raw Signal [3]: 55616 | Z-score [4]: 0.09118

CCn1ccnc1CC1COc2ccccc2O1 (stereo not shown) [Imiloxan hydrochloride]
Raw Signal [3]: 52626 | Z-score [5]: -0.297

CN(C)CCCN1c2ccccc2CCc2ccccc21 [Imipramine hydrochloride]
Raw Signal [3]: 53704 | Z-score [5]: -0.1159

CN[C@@H]1C[C@@H](c2ccc(Cl)c(Cl)c2)c2ccccc21 [Indatraline hydrochloride]
Raw Signal [3]: 53926 | Z-score [4]: -0.07855

O=C1Nc2ccccc2/C1=C1/Nc2ccccc2/C1=N\O [Indirubin-3 -oxime]
Raw Signal [1]: 58050 | Z-score [2]: 0.5855

COc1ccc2c(c1)c(CC(=O)N1CCOCC1)c(C)n2C(=O)c1ccc(Cl)cc1 [Indomethacin morpholinylamide]
Raw Signal [3]: 52785 | Z-score [5]: -0.2703

COc1ccc2c(c1)c(CC(=O)O)c(C)n2C(=O)c1ccc(Cl)cc1 [Indomethacin]
Raw Signal [3]: 54719 | Z-score [4]: 0.05469

NC(=O)CI [Iodoacetamide]
Raw Signal [6]: 64727 | Z-score [7]: 1.942

CC(C)NC(C)Cc1ccc(I)cc1 (stereo not shown) [Iofetamine hydrochloride]
Raw Signal [3]: 55439 | Z-score [4]: 0.1757

CC(C)[N+]1(C)[C@@H]2CC[C@H]1C[C@@H](OC(=O)C(CO)c1ccccc1)C2 (stereo partly shown) [Ipratropium bromide]
Raw Signal [1]: 56944 | Z-score [2]: 0.3609

CC(C)NNC(=O)c1ccncc1.O=P(O)(O)O [Iproniazid phosphate]
Raw Signal [1]: 60567 | Z-score [2]: 1.037

O=C(O)C1=CCNCC1 [Isoguvacine hydrochloride]
Raw Signal [3]: 53600 | Z-score [5]: -0.3182

O=C(/C=C/c1ccc(O)cc1)c1ccc(O)cc1O [Isoliquiritigenin]
Raw Signal [3]: 53778 | Z-score [5]: -0.1034

O=C(O)C1CCNCC1 [Isonipecotic acid]
Raw Signal [3]: 51826 | Z-score [5]: -0.4314

CCC(NC(C)C)C(O)c1ccc(O)c(O)c1.CS(=O)(=O)O (stereo not shown) [Isotharine mesylate]
Raw Signal [3]: 54100 | Z-score [4]: -0.04932

Nc1nc2[nH]c(=O)cnc2c(=O)[nH]1 [Isoxanthopterin]
Raw Signal [1]: 59100 | Z-score [2]: 0.7908

CC[C@H](C)[C@H]1O[C@]2(CC[C@@H]1C)C[C@@H]1C[C@@H](C/C=C(\C)[C@@H](O[C@H]3C[C@H](OC)[C@@H](O[C@H]4C[C@H](OC)[C@@H](O)[C@H](C)O4)[C@H](C)O3)[C@@H](C)/C=C/C=C3\CO[C@@H]4[C@H](O)C(C)=C[C@@H](C(=O)O1)[C@]34O)O2 [Ivermectin]
Raw Signal [3]: 51728 | Z-score [5]: -0.4479

CCCn1c(C)c(C(=O)c2cccc3ccccc23)c2ccccc21 [JWH-015]
Raw Signal [3]: 54462 | Z-score [4]: 0.01151

C=C(C)[C@H]1CN[C@H](C(=O)O)[C@H]1CC(=O)O [Kainic acid]
Raw Signal: 54485 | Z-score: 0.01537

CCN1C[C@]2(C)CC[C@H](O)[C@]34C1[C@@H](C[C@H]23)[C@@]1(O)C[C@H](OC)[C@H]2C[C@@H]4[C@@H]1[C@H]2O [Karakoline]
Raw Signal [3]: 53043 | Z-score [5]: -0.2269

O=C1Cc2c([nH]c3ccc(Br)cc23)-c2ccccc2N1 [Kenpaullone]
Raw Signal [6]: 65095 | Z-score [7]: 1.798

O=C(c1ccc(F)cc1)C1CCN(CCn2c(=O)[nH]c3ccccc3c2=O)CC1 [Ketanserin tartrate]
Raw Signal [1]: 61310 | Z-score [2]: 1.027

CC(=O)N1CCN(c2ccc(OCC3COC(Cn4ccnc4)(c4ccc(Cl)cc4Cl)O3)cc2)CC1 (stereo not shown) [Ketoconazole]
Raw Signal [6]: 49591 | Z-score [8]: -0.8069

CC(C(=O)O)c1cccc(C(=O)c2ccccc2)c1 (stereo not shown) [Ketoprofen]
Raw Signal [3]: 53403 | Z-score [5]: -0.1664

NC(CO)(CO)CO.O=C(c1ccccc1)c1ccc2n1CCC2C(=O)O (stereo not shown) [Ketorolac tris salt]
Raw Signal [6]: 48098 | Z-score [8]: -1.058

CN1CCC(=C2c3ccccc3CC(=O)c3sccc32)CC1 [Ketotifen fumarate]
Raw Signal [6]: 50782 | Z-score [8]: -0.6068

O=C(O)c1cc(=O)c2ccccc2[nH]1 [Kynurenic acid]
Raw Signal [3]: 53243 | Z-score [5]: -0.1933

NC[C@H](O)c1ccc(O)c(O)c1.O=C(O)C(O)C(O)C(=O)O [L(-)-Norepinephrine bitartrate]
Raw Signal [6]: 29897 | Z-score [8]: -4.934

N[C@@H](CCCC(=O)O)C(=O)O [L-2-aminoadipic acid]
Raw Signal [3]: 59199 | Z-score [4]: 0.2265

N[C@@H](Cc1ccc(O)c(O)c1)C(=O)O [L-3,4-Dihydroxyphenylalanine]
Raw Signal [6]: 43363 | Z-score [8]: -2.397

CCCCOC(=O)NS(=O)(=O)c1sc(CC(C)C)cc1-c1ccc(Cn2c(CC)nc3c(C)cc(C)nc32)cc1 [L-162,313]
Raw Signal [3]: 54291 | Z-score [4]: -0.01722

CCCc1c(OCCCOc2ccc(OCC(=O)O)cc2)ccc(C(C)=O)c1O [L-165,041]
Raw Signal [1]: 57961 | Z-score [2]: 0.5674

Cc1ccccc1N1CCN(S(=O)(=O)CC23CCC(CC2NC(=O)C(N)CCS(C)(=O)=O)C3(C)C)CC1 [L-368,899]
Raw Signal [6]: 50329 | Z-score [8]: -0.6829

Cc1c(CC(C)(C)C(=O)O)n(Cc2ccc(Cl)cc2)c2ccc(F)cc12 [L-655,240]
Raw Signal [6]: 51424 | Z-score [8]: -0.499

CCOC(=O)c1ncn2c1[C@@H]1CCCN1C(=O)c1cc(OC)ccc1-2 [L-655,708]
Raw Signal [3]: 54093 | Z-score [4]: -0.05049

Cl.c1ccc(CN2CCC3(CCCc4ccccc43)CC2)cc1 [L-687,384 hydrochloride]
Raw Signal [1]: 58533 | Z-score [2]: 0.6955

O=c1[nH]c2cc(Cl)ccc2c(O)c1-c1cccc(Oc2ccccc2)c1 [L-701,324]
Raw Signal [6]: 49431 | Z-score [8]: -0.8338

Ic1ccccc1CNC1C2CCN(CC2)C1C(c1ccccc1)c1ccccc1.O=C(O)C(=O)O [L-703,606 oxalate]
Raw Signal [3]: 52840 | Z-score [5]: -0.261

CC(=O)N[C@@H](Cc1c[nH]c2ccccc12)C(=O)OCc1cc(C(F)(F)F)cc(C(F)(F)F)c1 [L-732,138]
Raw Signal [6]: 53722 | Z-score [8]: -0.7382

Cl.FC(F)(F)c1cc(CO[C@H]2CCCN[C@H]2c2ccccc2)cc(C(F)(F)F)c1 [L-733,060 hydrochloride]
Raw Signal [3]: 52038 | Z-score [5]: -0.3958

OC1(c2ccc(Cl)cc2)CCN(Cc2c[nH]c3ccccc23)CC1 [L-741,626]
Raw Signal [6]: 51249 | Z-score [8]: -0.5284

Cl.Clc1ccc(N2CCN(Cc3c[nH]c4ncccc34)CC2)cc1 [L-745,870 hydrochloride]
Raw Signal [3]: 55866 | Z-score [4]: 0.2474

Cl.Cl.Cl.Ic1ccc(N2CCN(Cc3c[nH]c4ncccc34)CC2)cc1 [L-750,667 trihydrochloride]
Raw Signal [1]: 61468 | Z-score [2]: 1.1887

COc1cc2nc(N3CCN(C(=O)OCc4ccccc4)[C@H](C(=O)NC(C)(C)C)C3)nc(N)c2cc1OC [L-765,314]
Z-score [5]: -0.2706

N=C(N)NCCC[C@H](N)C(=O)O [L-Arginine]
Raw Signal [3]: 58902 | Z-score [4]: 0.1742

N[C@@H](CC(=O)O)C(=O)O [L-Aspartic acid]
Raw Signal [3]: 58223 | Z-score [4]: 0.05458

CCCCS(=N)(=O)CC[C@H](N)C(=O)O (stereo partly drawn) [L-Buthionine-sulfoximine]
Raw Signal [1]: 61284 | Z-score [2]: 0.5937

NC(N)=NOCC[C@H](N)C(=O)O.O=S(=O)(O)O [L-Canavanine sulfate]
Raw Signal [1]: 61689 | Z-score [2]: 0.665

N[C@H]1CON=C1O [L-Cycloserine]
Raw Signal [3]: 56773 | Z-score [5]: -0.2008

N[C@@H](CS(=O)O)C(=O)O [L-Cysteinesulfinic Acid]
Raw Signal [3]: 57943 | Z-score [4]: 0.005266

Cl.N[C@@H](CCC(=O)O)C(=O)O [L-Glutamic acid hydrochloride]
Raw Signal [3]: 55889 | Z-score [4]: 0.1466

O=C(O)CCC(C(=O)O)N1C(=O)c2ccccc2C1=O [L-Glutamic acid, N-phthaloyl-]
Raw Signal [1]: 59775 | Z-score [2]: 0.9042

NC(=O)CC[C@H](N)C(=O)O [L-Glutamine]
Raw Signal [1]: 57892 | Z-score [2]: 0.5534

Cl.N[C@@H](Cc1cnc[nH]1)C(=O)O [L-Histidine hydrochloride]
Raw Signal [1]: 61451 | Z-score [2]: 1.276

CN1[C@@H]2CC[C@H]1C[C@@H](OC(=O)[C@H](CO)c1ccccc1)C2 [L-Hyoscyamine]
Raw Signal [6]: 63094 | Z-score [7]: 1.61

CC(C)C[C@H](N)CSSC[C@@H](N)CC(C)C.Cl.Cl [L-Leucinethiol, oxidized dihydrochloride]
Raw Signal [3]: 55535 | Z-score [4]: 0.1918

CC(=N)NCCCC[C@H](N)C(=O)O.Cl [L-N6-(1-Iminoethyl)lysine hydrochloride]
Raw Signal [3]: 52153 | Z-score [5]: -0.3765

N[C@@H](Cc1c[nH]c2ccccc12)C(=O)O [L-Tryptophan]
Raw Signal [1]: 60593 | Z-score [2]: 0.8877

C=CC[C@H](N)C(=O)O [L-allylglycine]
Raw Signal [3]: 58984 | Z-score [4]: 0.1886

C[C@](N)(Cc1ccc(O)c(O)c1)C(=O)O [L-alpha-Methyl DOPA]
Raw Signal [6]: 24071 | Z-score [8]: -5.095

C[C@](N)(Cc1ccc(O)cc1)C(=O)O [L-alpha-Methyl-p-tyrosine]
Raw Signal [3]: 53929 | Z-score [4]: -0.07805

O=C(O)[C@@H]1CCN1 [L-azetidine-2-carboxylic acid]
Raw Signal [6]: 54831 | Z-score [8]: -0.5428
